Source: paper PMC5303205, “Comparative studies on the multi-component pharmacokinetics of Aristolochiae Fructus and honey-fried Aristolochiae Fructus extracts after oral administration in rats” (BMC Complementary and Alternative Medicine, 2017)
Like-named read-outs stand apart in the source and are kept apart here.

Experiments:
[1] = Multi-component pharmacokinetics of AAs in rats after oral administration of AF and HAF extracts (HPLC-MS/MS of plasma); parameters: species or system Sprague–Dawley (SD) rats; conditions: Sprague-Dawley, rat, in vivo
Method in brief: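 Rats were fasted 12 h and given AF or HAF extracts orally in 0.5% CMC–Na at 3.0, 8.0 or 15.0 mg/kg (as AA I), n = 6 per group. Ocular-vein plasma was sampled 0–24 h, ethyl-acetate extracted with internal standard, and analysed by C18 HPLC-MS/MS (positive ESI, MRM). Cmax was observed and other parameters model-fitted.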

[2] = Stability of AAs in rat plasma (QC samples, HPLC-MS/MS); assay type: in vitro ADME; conditions: n = 5; for Short-term stability (RSD/%): fresh rat plasma at room temperature for 24 h before sample preparation; for Post-preparation stability (RSD/%): prepared rat plasma samples at room temperature for 24 h; for Long-term stability (RSD/%): rat plasma stored at –20 °C for 14 days; for Freeze-thaw stability (RSD/%): rat plasma, three freeze-thaw cycles (–20 °C 24 h, thawed at room temperature)
Method in brief: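 Rat plasma QC samples tested over three freeze-thaw cycles (–20 °C 24 h, thawed at room temperature), 14 days at –20 °C, 24 h at room temperature before preparation, and 24 h post-preparation, by HPLC-MS/MS. Mean concentrations compared with freshly prepared samples; bias within ±15% accepted.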

[3] = 3 mg/kg, AF extract, low dose (3.0 mg/kg as AA I), analyte dose mg/kg: AA I 3.0, AA II 0.21, AA C 1.42, AA D 1.60, 7-OH AA I 2.33, n = 6
[4] = 3 mg/kg, HAF extract, low dose (3.0 mg/kg as AA I), analyte dose mg/kg: AA I 3.0, AA II 0.26, AA C 1.53, AA D 1.51, 7-OH AA I 2.48, n = 6
[5] = 8 mg/kg, AF extract, mid dose (8.0 mg/kg as AA I), analyte dose mg/kg: AA I 8.0, AA II 0.56, AA C 3.78, AA D 4.26, 7-OH AA I 6.22, n = 6
[6] = 8 mg/kg, HAF extract, mid dose (8.0 mg/kg as AA I), analyte dose mg/kg: AA I 8.0, AA II 0.69, AA C 4.09, AA D 4.03, 7-OH AA I 6.62, n = 6
[7] = 15 mg/kg, AF extract, high dose (15.0 mg/kg as AA I), analyte dose mg/kg: AA I 15.0, AA II 1.05, AA C 7.09, AA D 8.00, 7-OH AA I 11.66, n = 6
[8] = 15 mg/kg, HAF extract, high dose (15.0 mg/kg as AA I), analyte dose mg/kg: AA I 15.0, AA II 1.29, AA C 7.66, AA D 7.56, 7-OH AA I 12.41, n = 6
[9] = high QC conc ng/mL: AA I 1830, AA II 3200, AA C 2980, AA D 3680, 7-OH AA I 3280
[10] = low QC conc ng/mL: AA I 1.83, AA II 8.00, AA C 186.3, AA D 36.8, 7-OH AA I 82.0
[11] = middle QC conc ng/mL: AA I 457.5, AA II 400, AA C 372.5, AA D 460, 7-OH AA I 410

O=C(O)c1cc2c(c3c1c([N+](=O)[O-])cc1ccccc13)OCO2 [AA II]
AUC(0-inf) [1, 3]: 3960 ± 1000 ng·h/mL
Cmax [1, 3]: 590 ± 191 ng/mL
Tmax [1, 3]: 1.03 ± 0.18 h
CL/F ([1]; 3 mg/kg, AF extract, low dose (3.0 mg/kg as AA I), analyte dose mg/kg: AA I 3.0, AA II 0.21, AA C 1.42, AA D 1.60, 7-OH AA I 2.33, n = 6, read-out: CLz/F (converted)): 1.17 mL/min/kg
Vd/F ([1]; 3 mg/kg, AF extract, low dose (3.0 mg/kg as AA I), analyte dose mg/kg: AA I 3.0, AA II 0.21, AA C 1.42, AA D 1.60, 7-OH AA I 2.33, n = 6, read-out: Vz/F): 0.49 ± 0.06 L/kg
half-life ([1]; 3 mg/kg, AF extract, low dose (3.0 mg/kg as AA I), analyte dose mg/kg: AA I 3.0, AA II 0.21, AA C 1.42, AA D 1.60, 7-OH AA I 2.33, n = 6, read-out: t 1/2z (converted)): 4.98 ± 0.55 h
AUC(0-inf) [1, 4]: 2720 ± 795 ng·h/mL
Cmax [1, 4]: 293 ± 55.2 ng/mL
Tmax [1, 4]: 0.81 ± 0.14 h
CL/F ([1]; 3 mg/kg, HAF extract, low dose (3.0 mg/kg as AA I), analyte dose mg/kg: AA I 3.0, AA II 0.26, AA C 1.53, AA D 1.51, 7-OH AA I 2.48, n = 6, read-out: CLz/F (converted)): 1.33 mL/min/kg
Vd/F ([1]; 3 mg/kg, HAF extract, low dose (3.0 mg/kg as AA I), analyte dose mg/kg: AA I 3.0, AA II 0.26, AA C 1.53, AA D 1.51, 7-OH AA I 2.48, n = 6, read-out: Vz/F): 0.55 ± 0.07 L/kg
half-life ([1]; 3 mg/kg, HAF extract, low dose (3.0 mg/kg as AA I), analyte dose mg/kg: AA I 3.0, AA II 0.26, AA C 1.53, AA D 1.51, 7-OH AA I 2.48, n = 6, read-out: t 1/2z (converted)): 4.94 ± 0.61 h
AUC(0-inf) [1, 5]: 7820 ± 1980 ng·h/mL
Cmax [1, 5]: 1140 ± 193 ng/mL
Tmax [1, 5]: 1.33 ± 0.21 h
CL/F ([1]; 8 mg/kg, AF extract, mid dose (8.0 mg/kg as AA I), analyte dose mg/kg: AA I 8.0, AA II 0.56, AA C 3.78, AA D 4.26, 7-OH AA I 6.22, n = 6, read-out: CLz/F (converted)): 1.17 mL/min/kg
Vd/F ([1]; 8 mg/kg, AF extract, mid dose (8.0 mg/kg as AA I), analyte dose mg/kg: AA I 8.0, AA II 0.56, AA C 3.78, AA D 4.26, 7-OH AA I 6.22, n = 6, read-out: Vz/F): 0.48 ± 0.05 L/kg
half-life ([1]; 8 mg/kg, AF extract, mid dose (8.0 mg/kg as AA I), analyte dose mg/kg: AA I 8.0, AA II 0.56, AA C 3.78, AA D 4.26, 7-OH AA I 6.22, n = 6, read-out: t 1/2z (converted)): 5.06 ± 0.49 h
AUC(0-inf) [1, 6]: 3870 ± 1200 ng·h/mL
Cmax [1, 6]: 412 ± 104 ng/mL
Tmax [1, 6]: 0.81 ± 0.16 h
CL/F ([1]; 8 mg/kg, HAF extract, mid dose (8.0 mg/kg as AA I), analyte dose mg/kg: AA I 8.0, AA II 0.69, AA C 4.09, AA D 4.03, 7-OH AA I 6.62, n = 6, read-out: CLz/F (converted)): 1.17 mL/min/kg
Vd/F ([1]; 8 mg/kg, HAF extract, mid dose (8.0 mg/kg as AA I), analyte dose mg/kg: AA I 8.0, AA II 0.69, AA C 4.09, AA D 4.03, 7-OH AA I 6.62, n = 6, read-out: Vz/F): 0.49 ± 0.06 L/kg
half-life ([1]; 8 mg/kg, HAF extract, mid dose (8.0 mg/kg as AA I), analyte dose mg/kg: AA I 8.0, AA II 0.69, AA C 4.09, AA D 4.03, 7-OH AA I 6.62, n = 6, read-out: t 1/2z (converted)): 4.95 ± 0.53 h
AUC(0-inf) [1, 7]: 12700 ± 2960 ng·h/mL
Cmax [1, 7]: 1520 ± 200 ng/mL
Tmax [1, 7]: 1.83 ± 0.29 h
CL/F ([1]; 15 mg/kg, AF extract, high dose (15.0 mg/kg as AA I), analyte dose mg/kg: AA I 15.0, AA II 1.05, AA C 7.09, AA D 8.00, 7-OH AA I 11.66, n = 6, read-out: CLz/F (converted)): 1.83 mL/min/kg
Vd/F ([1]; 15 mg/kg, AF extract, high dose (15.0 mg/kg as AA I), analyte dose mg/kg: AA I 15.0, AA II 1.05, AA C 7.09, AA D 8.00, 7-OH AA I 11.66, n = 6, read-out: Vz/F): 0.82 ± 0.09 L/kg
half-life ([1]; 15 mg/kg, AF extract, high dose (15.0 mg/kg as AA I), analyte dose mg/kg: AA I 15.0, AA II 1.05, AA C 7.09, AA D 8.00, 7-OH AA I 11.66, n = 6, read-out: t 1/2z (converted)): 5.16 ± 0.52 h
AUC(0-inf) [1, 8]: 5630 ± 1690 ng·h/mL
Cmax [1, 8]: 528 ± 62.4 ng/mL
Tmax [1, 8]: 0.93 ± 0.19 h
CL/F ([1]; 15 mg/kg, HAF extract, high dose (15.0 mg/kg as AA I), analyte dose mg/kg: AA I 15.0, AA II 1.29, AA C 7.66, AA D 7.56, 7-OH AA I 12.41, n = 6, read-out: CLz/F (converted)): 1.5 mL/min/kg
Vd/F ([1]; 15 mg/kg, HAF extract, high dose (15.0 mg/kg as AA I), analyte dose mg/kg: AA I 15.0, AA II 1.29, AA C 7.66, AA D 7.56, 7-OH AA I 12.41, n = 6, read-out: Vz/F): 0.72 ± 0.08 L/kg
half-life ([1]; 15 mg/kg, HAF extract, high dose (15.0 mg/kg as AA I), analyte dose mg/kg: AA I 15.0, AA II 1.29, AA C 7.66, AA D 7.56, 7-OH AA I 12.41, n = 6, read-out: t 1/2z (converted)): 5.39 ± 0.48 h
Short-term stability (RSD/%) [2, 9]: 9.3%
Short-term stability (RSD/%) [2, 10]: 5.0%
Short-term stability (RSD/%) [2, 11]: 5.5%
Post-preparation stability (RSD/%) [2, 9]: 6.5%
Post-preparation stability (RSD/%) [2, 10]: 4.4%
Post-preparation stability (RSD/%) [2, 11]: 3.6%
Long-term stability (RSD/%) [2, 9]: 7.3%
Long-term stability (RSD/%) [2, 10]: 1.2%
Long-term stability (RSD/%) [2, 11]: 8.2%
Freeze-thaw stability (RSD/%) [2, 9]: 14.3%
Freeze-thaw stability (RSD/%) [2, 10]: 1.3%
Freeze-thaw stability (RSD/%) [2, 11]: 10.2%
